Results taken from publication PMC2819846 (Mutation research, 2008).

Columns and labels:
Salmonella TA104 = assay: Salmonella plate-incorporation mutagenicity assay, strain TA104, with S9 mix; assay type: cell-based
Salmonella TA100 = assay: Salmonella plate-incorporation mutagenicity assay, strain TA100; assay type: cell-based
strain TA100 = assay type: cell-based, Salmonella; details: TA100 liquid-suspension, 5 µg/ml
[1] = test system: DNA from Salmonella TA100; assay: Abasic sites by aldehydic-site assay in DNA of treated TA100; assay type: cell-based; details: TA100, 5 µg/ml; DMSO 5.9 ± 0.33
Salmonella TA98 = assay: Salmonella plate-incorporation mutagenicity assay, strain TA98, with S9 mix; assay type: cell-based
[2] = test system: DNA from Salmonella TA100; assay: Stable DNA adducts by 32P-postlabeling in DNA of treated TA100; assay type: cell-based; details: TA100, 5 µg/ml; DMSO 0.024 ± 0.000

Q: Which results are given for O[C@@H]1C=Cc2c(ccc3ccc4ccsc4c23)[C@H]1O (racemic) [P[4,3-b]T 8,9-diol, (±)-trans-8,9-Dihydrophenanthro[4,3-b]thiophene 8,9 diol-]?
A: Rev/plate (Salmonella TA104; TA104 +S9, Test 1, 0.5 µg/plate, zero-dose 379/400/370): 700/693; Rev/plate (Salmonella TA104; TA104 +S9, Test 1, 1 µg/plate, zero-dose 379/400/370): 1035/1060; Rev/plate (Salmonella TA104; TA104 +S9, Test 1, 2.5 µg/plate, zero-dose 379/400/370): 1698/1615; Rev/plate (Salmonella TA104; TA104 +S9, Test 1, 5 µg/plate, zero-dose 379/400/370): 1986/1995; Rev/plate (Salmonella TA104; TA104 +S9, Test 3, 0.5 µg/plate, zero-dose 402/395/336): 824/707; Rev/plate (Salmonella TA104; TA104 +S9, Test 3, 1 µg/plate, zero-dose 402/395/336): 1210/1178; Rev/plate (Salmonella TA104; TA104 +S9, Test 3, 2.5 µg/plate, zero-dose 402/395/336): 1827/1822; Rev/plate (Salmonella TA104; TA104 +S9, Test 3, 5 µg/plate, zero-dose 402/395/336): 1980/1970; Mutagenic potency, Revertants/µg ± S.E., TA104 (Salmonella TA104; plate-incorporation, +S9): 577 ± 63 rev/µg; Mutagenicity call TA104 (Salmonella TA104; plate-incorporation, +S9): (+) (Called mutagenic (+) based on showing reproducible, dose-related increases in rev/plate that reached or exceeded 2-fold relative to zero-dose controls); Rev/plate (Salmonella TA100; TA100 +S9, Test 1, 2 µg/plate, zero-dose 99/110/110): 660 rev/plate; Rev/plate (Salmonella TA100; TA100 +S9, Test 1, 5 µg/plate, zero-dose 99/110/110): 938 rev/plate; Rev/plate (Salmonella TA100; TA100 +S9, Test 1, 10 µg/plate, zero-dose 99/110/110): 1120 rev/plate; Rev/plate (Salmonella TA100; TA100 +S9, Test 1, 20 µg/plate, zero-dose 99/110/110): 1175 rev/plate; Rev/plate (Salmonella TA100; TA100 +S9, Test 1, 40 µg/plate, zero-dose 99/110/110): 1027 rev/plate; Rev/plate (Salmonella TA100; TA100 +S9, Test 1, 80 µg/plate, zero-dose 99/110/110): 673 rev/plate; Rev/plate (Salmonella TA100; TA100 +S9, Test 2, 0.5 µg/plate, zero-dose 84/78/80): 205/219; Rev/plate (Salmonella TA100; TA100 +S9, Test 2, 1 µg/plate, zero-dose 84/78/80): 318/270; Rev/plate (Salmonella TA100; TA100 +S9, Test 2, 2.5 µg/plate, zero-dose 84/78/80): 703/655; Rev/plate (Salmonella TA100; TA100 +S9, Test 2, 5 µg/plate, zero-dose 84/78/80): 857/907; Rev/plate (Salmonella TA100; TA100 +S9, Test 3, 0.5 µg/plate, zero-dose 127/118/125): 412/353; Rev/plate (Salmonella TA100; TA100 +S9, Test 3, 1 µg/plate, zero-dose 127/118/125): 610/511; Rev/plate (Salmonella TA100; TA100 +S9, Test 3, 2.5 µg/plate, zero-dose 127/118/125): 951/868; Rev/plate (Salmonella TA100; TA100 +S9, Test 3, 5 µg/plate, zero-dose 127/118/125): 985/1059; Rev/plate (Salmonella TA100; TA100 +S9, Test 4, 0.5 µg/plate, zero-dose 112/140/115): 305/312; Rev/plate (Salmonella TA100; TA100 +S9, Test 4, 1 µg/plate, zero-dose 112/140/115): 487/469; Rev/plate (Salmonella TA100; TA100 +S9, Test 4, 2.5 µg/plate, zero-dose 112/140/115): 976/966; Rev/plate (Salmonella TA100; TA100 +S9, Test 4, 5 µg/plate, zero-dose 112/140/115): 1368/1275; Rev/plate (Salmonella TA100; TA100 +S9, Test 5, 0.5 µg/plate, zero-dose 102/119/99): 269/235; Rev/plate (Salmonella TA100; TA100 +S9, Test 5, 1 µg/plate, zero-dose 102/119/99): 430/375; Rev/plate (Salmonella TA100; TA100 +S9, Test 5, 2.5 µg/plate, zero-dose 102/119/99): 865/878; Rev/plate (Salmonella TA100; TA100 +S9, Test 5, 5 µg/plate, zero-dose 102/119/99): 1150/1115; Times more mutagenic for base-substitution mutation than the parent P[4,3-b]T (Salmonella TA100; base-substitution strains (TA100, TA104), Table 2): 10–20 times; Mutagenic potency, Revertants/µg ± S.E., TA100 (Salmonella TA100; plate-incorporation, +S9): 274 ± 37 rev/µg; Mutagenicity call TA100 (Salmonella TA100; plate-incorporation, +S9): (+) (Called mutagenic (+) based on showing reproducible, dose-related increases in rev/plate that reached or exceeded 2-fold relative to zero-dose controls); Fold increase in mutant frequency relative to DMSO-treated cells (strain TA100): 6.1 fold; Rev/10^6 survivors (strain TA100; DMSO 0.8): 4.9 Rev/10^6 survivors; Percent survival (strain TA100; DMSO 100): 47%; Abasic sites/10^5 nucleotides ± S.E [1]: 5.5 ± 0.16 sites/10^5 nucleotides; Rev/plate (Salmonella TA98; TA98 +S9, Test 1, 2 µg/plate, zero-dose 33/40/39): 73 rev/plate; Rev/plate (Salmonella TA98; TA98 +S9, Test 1, 5 µg/plate, zero-dose 33/40/39): 116 rev/plate; Rev/plate (Salmonella TA98; TA98 +S9, Test 1, 10 µg/plate, zero-dose 33/40/39): 140 rev/plate; Rev/plate (Salmonella TA98; TA98 +S9, Test 1, 20 µg/plate, zero-dose 33/40/39): 229 rev/plate; Rev/plate (Salmonella TA98; TA98 +S9, Test 1, 40 µg/plate, zero-dose 33/40/39): 435 rev/plate; Rev/plate (Salmonella TA98; TA98 +S9, Test 1, 80 µg/plate, zero-dose 33/40/39): 578 rev/plate; Rev/plate (Salmonella TA98; TA98 +S9, Test 2, 10 µg/plate, zero-dose 43/41/30): 167/151; Rev/plate (Salmonella TA98; TA98 +S9, Test 2, 20 µg/plate, zero-dose 43/41/30): 127/225; Rev/plate (Salmonella TA98; TA98 +S9, Test 2, 40 µg/plate, zero-dose 43/41/30): 383/448; Rev/plate (Salmonella TA98; TA98 +S9, Test 2, 80 µg/plate, zero-dose 43/41/30): 479/475; Rev/plate (Salmonella TA98; TA98 +S9, Test 3, 10 µg/plate, zero-dose 49/50/50): 251/249; Rev/plate (Salmonella TA98; TA98 +S9, Test 3, 20 µg/plate, zero-dose 49/50/50): 298/321; Rev/plate (Salmonella TA98; TA98 +S9, Test 3, 40 µg/plate, zero-dose 49/50/50): 561/624; Rev/plate (Salmonella TA98; TA98 +S9, Test 3, 80 µg/plate, zero-dose 49/50/50): 828/725; Mutagenic potency, Revertants/µg ± S.E., TA98 (Salmonella TA98; plate-incorporation, +S9): 11.0 ± 1.6 rev/µg; Mutagenicity call TA98 (Salmonella TA98; plate-incorporation, +S9): (+) (Called mutagenic (+) based on showing reproducible, dose-related increases in rev/plate that reached or exceeded 2-fold relative to zero-dose controls); Stable adducts/10^8 nucleotides ± S.E [2]: 0.650 ± 0.045 adducts/10^8 nucleotides
